From patent publication EP0158075A1, “Immuno stimulating composition” (BAYER AG, priority 1984, dated 1985)

Experiments:
Salmonella typhimurium [1] = test: Survival of mice after intraperitoneal infection with Salmonella typhimurium (Beispiel B); assay type: in vivo, Mäuse; details: 10 mg/kg per os once daily on 4 consecutive days, starting 1 day after i.p. infection with 7 x 10^5 colony-forming units
Description: Substanzen, die die körpereigene Abwehr (Immunsystem) während einer Infektion stimulieren, sind sowohl für die Human- wie für die Veterinärmedizin von großem Interesse, da viele Infektionen trotz guter chemotherapeutischer Möglichkeiten ohne Unterstützung durch körpereigene Abwehrmechanismen persistieren. Dies kann zum erneuten Auftreten von Symptomen (Rezidiv) nach dem überstehen der Ersterkrankung und damit zu chronisch rezidivierenden Krankheiten führen. Unter den durch Bakterien bedingten Erkrankungen sind es besonders Infektionen mit sogenannten fakultativ intrazellulären Bakterien, die Probleme darstellen. Darunter versteht man Bakterien, die sich nach Aufnahme in die Makrophagen (Phagozytose) weiter vermehren. Es bedarf erst einer weiteren Stimulierung der Makrophagen über das Immunsystem, um diese intrazellulären Bakterien abzutöten. Ein Experimentalmodell für eine solche Erkrankung stellt die Infektion der Maus mit Salmonella typhimurium dar. Nach Inokulation der Mäuse mit diesem humanpathogenen Bakterium kommt es in Abhängigkeit von der Infektionsdosis zu einem subakut bis chronischen Krankheitsverlauf, bei dem die Tiere erst nach 4 bis 7 Tagen abzusterben beginnen. Während dieses Zeitraumes besteht die Möglichkeit, das Immunsystem durch Substanzen zu beeinflussen. Bei den meisten anderen tierexperimentellen Infektionen, kommt es zu einem sehr schnellen Absterben der Tiere innerhalb von 1 bis 2 Tagen. Damit besteht keine Möglichkeit mehr, die Abwehr während der Infektion zu stimulieren. 1-[3-Methyl-4-(4'-trifluormethylthio-phenoxy)-phenyl]-3-methyl-1,3,5-triazin-trion wurde Mäusen an 4 aufeinanderfolgenden Tagen einmal täglich per os in unterschiedlichen Dosen verabfolgt, beginnend 1 Tag nach intraperitonealer Infektion mit 7 x 10^5 Kolonien-bildenden Einheiten von Salmonella typhimurium. Diese Infektionsdosis führt bei unbehandelten Tieren innerhalb von 4 bis 6 Tagen zu einem Absterben von 70 bis 90 % der Tiere. […]

Salmonella typhimurium [2] = test: In vitro direct effect on growth of Salmonella typhimurium; assay type: cell-based

Cc1cc(-n2c(=O)[nH]c(=O)n(C)c2=O)ccc1Oc1ccc(SC(F)(F)F)cc1 [1-[3-Methyl-4-(4'-trifluormethylthio-phenoxy)-phenyl]-3-methyl-1,3,5-triazin-2,4,6-(1H, 3H, 5H)-trion]
Überlebende Mäuse (%) an folgenden Tagen nach Infektion: 6. Tag (Salmonella typhimurium [1]; day 6 after infection): 90%
Überlebende Mäuse (%) an folgenden Tagen nach Infektion: 12. Tag (Salmonella typhimurium [1]; day 12 after infection): 60%
Überlebende Mäuse (%) an folgenden Tagen nach Infektion: 18. Tag (Salmonella typhimurium [1]; day 18 after infection): 60%
direkter Effekt auf die Vermehrung von Salmonella typhimurium (Salmonella typhimurium [2]): keinen direkten Effekt
